This note sets out measurements from PubChem BioAssay AID623863 (Southern Research Specialized Biocontainment Screening …, 2012).

pIC50: −log10 of the molar value. Calls of active or inactive are those of the source. The rule behind the calls is not given here.

For orientation: pIC50 means the negative decadic logarithm of the IC50, by convention in mol/L.

Sequence of Genome polyprotein (Dengue virus type 2 (strain 16681-PDK53)) (P29991 whole entry, looked up): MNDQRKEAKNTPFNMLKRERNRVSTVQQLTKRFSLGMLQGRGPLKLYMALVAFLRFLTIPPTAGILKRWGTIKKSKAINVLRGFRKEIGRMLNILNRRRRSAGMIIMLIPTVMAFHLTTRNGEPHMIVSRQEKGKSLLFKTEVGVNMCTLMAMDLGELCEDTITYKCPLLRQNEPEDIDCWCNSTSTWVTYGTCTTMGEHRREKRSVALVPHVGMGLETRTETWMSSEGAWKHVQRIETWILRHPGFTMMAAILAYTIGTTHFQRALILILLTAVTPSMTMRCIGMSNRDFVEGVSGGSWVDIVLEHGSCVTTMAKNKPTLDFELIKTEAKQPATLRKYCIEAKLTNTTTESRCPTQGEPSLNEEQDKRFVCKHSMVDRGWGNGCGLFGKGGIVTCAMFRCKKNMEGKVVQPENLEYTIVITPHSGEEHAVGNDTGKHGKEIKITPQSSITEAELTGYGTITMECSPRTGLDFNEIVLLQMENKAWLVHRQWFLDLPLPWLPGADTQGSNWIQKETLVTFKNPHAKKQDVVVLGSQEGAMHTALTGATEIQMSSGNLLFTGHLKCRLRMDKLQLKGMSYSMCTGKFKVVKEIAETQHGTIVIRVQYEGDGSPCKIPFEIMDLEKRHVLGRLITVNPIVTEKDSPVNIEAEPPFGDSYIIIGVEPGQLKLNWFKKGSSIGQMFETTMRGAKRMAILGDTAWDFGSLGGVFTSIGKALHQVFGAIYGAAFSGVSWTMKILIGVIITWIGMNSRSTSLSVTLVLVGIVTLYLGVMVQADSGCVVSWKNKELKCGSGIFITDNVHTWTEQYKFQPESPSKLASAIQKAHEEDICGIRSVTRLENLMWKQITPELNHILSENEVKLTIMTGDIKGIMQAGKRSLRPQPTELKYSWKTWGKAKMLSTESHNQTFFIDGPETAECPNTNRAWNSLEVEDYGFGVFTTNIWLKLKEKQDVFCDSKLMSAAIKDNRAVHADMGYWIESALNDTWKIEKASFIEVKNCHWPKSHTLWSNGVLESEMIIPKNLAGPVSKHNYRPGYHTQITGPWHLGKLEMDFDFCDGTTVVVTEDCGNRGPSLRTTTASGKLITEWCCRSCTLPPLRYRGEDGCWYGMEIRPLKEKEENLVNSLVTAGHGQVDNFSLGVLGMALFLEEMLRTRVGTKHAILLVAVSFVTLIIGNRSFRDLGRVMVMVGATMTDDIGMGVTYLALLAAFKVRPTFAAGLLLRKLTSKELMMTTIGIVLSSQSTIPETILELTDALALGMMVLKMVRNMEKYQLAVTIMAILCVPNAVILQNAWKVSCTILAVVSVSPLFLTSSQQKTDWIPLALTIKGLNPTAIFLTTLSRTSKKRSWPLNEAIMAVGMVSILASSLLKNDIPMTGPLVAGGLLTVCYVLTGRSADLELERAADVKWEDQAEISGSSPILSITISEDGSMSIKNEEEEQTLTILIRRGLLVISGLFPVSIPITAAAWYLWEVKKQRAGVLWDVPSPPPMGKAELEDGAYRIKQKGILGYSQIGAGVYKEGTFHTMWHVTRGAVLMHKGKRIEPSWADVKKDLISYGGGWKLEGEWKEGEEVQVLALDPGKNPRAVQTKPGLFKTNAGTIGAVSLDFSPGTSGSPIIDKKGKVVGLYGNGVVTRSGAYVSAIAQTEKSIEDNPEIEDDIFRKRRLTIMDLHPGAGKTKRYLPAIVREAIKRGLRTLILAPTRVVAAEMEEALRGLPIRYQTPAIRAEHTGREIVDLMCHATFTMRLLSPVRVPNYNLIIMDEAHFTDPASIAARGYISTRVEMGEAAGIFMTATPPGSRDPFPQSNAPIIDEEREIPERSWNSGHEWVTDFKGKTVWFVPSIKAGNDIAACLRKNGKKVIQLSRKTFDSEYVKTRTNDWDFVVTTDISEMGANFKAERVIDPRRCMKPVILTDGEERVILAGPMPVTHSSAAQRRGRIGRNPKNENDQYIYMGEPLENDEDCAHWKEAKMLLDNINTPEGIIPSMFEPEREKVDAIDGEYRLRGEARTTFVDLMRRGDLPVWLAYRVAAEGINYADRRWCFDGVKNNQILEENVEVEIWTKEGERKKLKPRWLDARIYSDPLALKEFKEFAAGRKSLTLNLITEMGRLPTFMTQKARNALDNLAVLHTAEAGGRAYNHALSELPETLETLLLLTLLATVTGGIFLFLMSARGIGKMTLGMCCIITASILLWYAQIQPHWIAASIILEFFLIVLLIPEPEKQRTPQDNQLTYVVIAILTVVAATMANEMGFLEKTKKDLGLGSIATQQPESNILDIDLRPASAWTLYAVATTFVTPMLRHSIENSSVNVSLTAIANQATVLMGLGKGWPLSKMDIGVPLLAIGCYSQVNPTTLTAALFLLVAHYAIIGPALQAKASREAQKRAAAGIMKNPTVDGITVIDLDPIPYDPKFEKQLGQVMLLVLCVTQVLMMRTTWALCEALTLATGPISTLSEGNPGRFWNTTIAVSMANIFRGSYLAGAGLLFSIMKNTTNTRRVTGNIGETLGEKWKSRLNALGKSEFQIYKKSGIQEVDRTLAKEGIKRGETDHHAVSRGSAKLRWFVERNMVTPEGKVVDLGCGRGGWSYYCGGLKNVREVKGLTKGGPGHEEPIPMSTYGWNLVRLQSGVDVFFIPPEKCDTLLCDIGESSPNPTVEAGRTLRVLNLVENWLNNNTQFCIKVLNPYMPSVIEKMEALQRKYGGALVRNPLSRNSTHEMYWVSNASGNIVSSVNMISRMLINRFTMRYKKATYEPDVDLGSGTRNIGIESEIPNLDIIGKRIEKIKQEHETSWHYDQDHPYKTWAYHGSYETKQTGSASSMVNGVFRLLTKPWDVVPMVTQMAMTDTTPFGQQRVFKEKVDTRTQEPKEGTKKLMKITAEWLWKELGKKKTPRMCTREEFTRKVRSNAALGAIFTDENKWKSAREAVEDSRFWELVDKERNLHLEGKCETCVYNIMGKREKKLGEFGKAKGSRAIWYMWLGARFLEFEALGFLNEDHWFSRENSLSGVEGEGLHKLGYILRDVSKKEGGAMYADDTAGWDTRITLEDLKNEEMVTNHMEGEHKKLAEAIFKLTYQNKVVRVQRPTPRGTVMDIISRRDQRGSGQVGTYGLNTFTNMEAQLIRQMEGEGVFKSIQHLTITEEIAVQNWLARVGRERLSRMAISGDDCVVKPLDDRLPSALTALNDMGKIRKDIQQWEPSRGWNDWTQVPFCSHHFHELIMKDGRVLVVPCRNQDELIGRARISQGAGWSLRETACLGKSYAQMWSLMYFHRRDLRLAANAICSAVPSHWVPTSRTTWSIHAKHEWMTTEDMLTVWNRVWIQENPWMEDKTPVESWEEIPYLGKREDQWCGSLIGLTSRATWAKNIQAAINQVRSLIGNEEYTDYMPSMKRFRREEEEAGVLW

The first test has as its target Genome polyprotein (Dengue virus type 2 (strain 16681-PDK53)) (UniProt P29991). The test can be described thus: flavivirus RNA guanylyltransferase activity inhibition – biochemical, secondary assay, dose response (AID 623863). The note with it: Dengue-2 NS5 guanylylation inhibition.
Consider `O=S(=O)(Nc1cc(SCc2ccccc2)c(O)c2ccccc12)c1ccc(Cl)cc1`, for which the pIC50 was 5.37.

For the compound `O=C(O)CSc1cc(NS(=O)(=O)c2ccc(Cl)cc2)c2ccccc2c1O`, the pIC50 is 5.10.

In the case of `Cc1ccc(S(=O)(=O)Nc2cc(Sc3nc(C)cc(C)n3)c(O)c3ccccc23)cc1`, the pIC50 was 4.34. The same measure, in the same setting: the same measure for `O=[N+]([O-])c1cccc(S(=O)(=O)Nc2cc(SCc3ccccc3)c(O)c3ccccc23)c1`: 5.52; for `O=[N+]([O-])c1cccc(S(=O)(=O)Nc2cc(Sc3nc4ccccc4s3)c(O)c3ccccc23)c1`: 4.74; for `O=C(O)CSc1cc(NS(=O)(=O)c2ccc(Br)cc2)c2ccccc2c1O`: 5.63.

Regarding `Cn1c(=O)c2[nH]c(-c3ccc(Cl)cc3)c(O)c2n(C)c1=O`, the pIC50 is 5.12.

For `O=S(=O)(Nc1cc(Sc2ccccc2)c(O)c2ccccc12)c1ccc(F)cc1`, the pIC50 was 4.32.

For the compound `O=C(O)CSc1cc(NS(=O)(=O)c2cccc([N+](=O)[O-])c2)c2ccccc2c1O`, the pIC50 was 5.48.

The test is the same for the next values; noted with them: Dengue-2 NS5 guanylylation inhibition, at 50 µM (top of the series).
For the compound `Cc1ccc(S(=O)(=O)Nc2cc(SCC(=O)O)c(O)c3ccccc23)cc1`, the inhibition result is “inactive”. For the compound `Cc1cc(F)ccc1S(=O)(=O)Nc1cc(SCC(=O)O)c(O)c2ccccc12`, the inhibition entry is “inactive”. With `O=S(=O)(Nc1cc(Sc2ncn[nH]2)c(O)c2ccccc12)c1ccc(F)cc1`, the inhibition result was “inactive”. In the case of `O=C(O)CSc1cc(NS(=O)(=O)c2ccc(F)cc2)c2ccccc2c1O`, the inhibition entry was “inactive”. Regarding `Cc1cc(C)c(S(=O)(=O)Nc2cc(SCC(=O)O)c(O)c3ccccc23)c(C)c1`, the inhibition result was “inactive”.
